Test results as given in ChEMBL document CHEMBL3885881, “DrugMatrix”.

Species: Rattus norvegicus
Test: DrugMatrix - Regimen: Daily Repeat
Assay type: toxicity, organism-based, Sprague-Dawley
Parameters: regimen Daily Repeat, gender Male, age 6-8 weeks
Details: in vivo, po, route oral GAVAGE, vehicle 100 % WATER; for ABSOLUTE BASOPHIL / ABSOLUTE EOSINOPHIL / ABSOLUTE LYMPHOCYTE / ABSOLUTE MONOCYTE / ABSOLUTE SEGMENTED NEUTROPHIL / BASOPHIL / EOSINOPHIL / ERYTHROCYTE COUNT / HEMATOCRIT / HEMOGLOBIN / LEUKOCYTE COUNT / LYMPHOCYTE / MEAN CORPUSCULAR HEMOGLOBIN / MEAN CORPUSCULAR HEMOGLOBIN CONCENTRATION / MEAN CORPUSCULAR VOLUME / MONOCYTE / NEUTROPHIL / NUCLEATED RED BLOOD CELLS / PLATELET COUNT: tissue Blood; for ALANINE AMINOTRANSFERASE / ALBUMIN / ALKALINE PHOSPHATASE / ASPARTATE AMINOTRANSFERASE / BLOOD UREA NITROGEN / CARBON DIOXIDE / CHLORIDE / CHOLESTEROL / CREATINE PHOSPHOKINASE / CREATININE / GLUCOSE / LACTATE DEHYDROGENASE / LIPASE / PHOSPHORUS / POTASSIUM / SODIUM / TOTAL BILIRUBIN / TOTAL PROTEIN / URIC ACID: tissue Plasma
[1] = 27 mg/kg, 72 h, dose level High, time 3 day
[2] = 27 mg/kg, 120 h, dose level High, time 5 day
[3] = […], 72 h, dose 2.7 mg/Kg, dose level Low, time 3 day
[4] = […], 120 h, dose 2.7 mg/Kg, dose level Low, time 5 day

SMILES: NNCCc1ccccc1 [PHENELZINE]
- ABSOLUTE BASOPHIL [1]: 0 CELLS/uL
- ABSOLUTE EOSINOPHIL [1]: 54.67 CELLS/uL
- ABSOLUTE LYMPHOCYTE [1]: 7424 CELLS/uL
- ABSOLUTE MONOCYTE [1]: 106.67 CELLS/uL
- ABSOLUTE SEGMENTED NEUTROPHIL [1]: 481.33 CELLS/uL
- BASOPHIL [1]: 0%
- EOSINOPHIL [1]: 0.67%
- ERYTHROCYTE COUNT [1]: 5.49 x10E6/uL
- HEMATOCRIT [1]: 35.1%
- HEMOGLOBIN [1]: 14.03 G/DL
- LEUKOCYTE COUNT [1]: 8.07 x10E3/uL
- LYMPHOCYTE [1]: 92%
- MEAN CORPUSCULAR HEMOGLOBIN [1]: 25.57 pg
- MEAN CORPUSCULAR HEMOGLOBIN CONCENTRATION [1]: 39.97 G/DL
- MEAN CORPUSCULAR VOLUME [1]: 63.93 fL
- MONOCYTE [1]: 1.33%
- NEUTROPHIL [1]: 6%
- NUCLEATED RED BLOOD CELLS [1]: 0 /100WBC
- PLATELET COUNT [1]: 1341.67 x10E3/uL
- ALANINE AMINOTRANSFERASE [1]: 25.67 u/L
- ALBUMIN [1]: 4.5 G/DL
- ALKALINE PHOSPHATASE [1]: 356.33 u/L
- ASPARTATE AMINOTRANSFERASE [1]: 75.67 u/L
- BLOOD UREA NITROGEN [1]: 16.67 mg/dL
- CARBON DIOXIDE [1]: 31 mmol/L
- CHLORIDE [1]: 102.33 MEQ/L
- CHOLESTEROL [1]: 78.33 mg/dL
- CREATINE PHOSPHOKINASE [1]: 265 u/L
- CREATININE [1]: 0.16 mg/dL
- GLUCOSE [1]: 143 mg/dL
- LACTATE DEHYDROGENASE [1]: 131.33 u/L
- LIPASE [1]: 9.33 u/L
- PHOSPHORUS [1]: 11.73 mg/dL
- POTASSIUM [1]: 6.74 MEQ/L
- SODIUM [1]: 145.43 MEQ/L
- TOTAL BILIRUBIN [1]: 0.23 mg/dL
- TOTAL PROTEIN [1]: 6.07 G/DL
- URIC ACID [1]: 1.23 mg/dL
- ABSOLUTE BASOPHIL [2]: 0 CELLS/uL
- ABSOLUTE EOSINOPHIL [2]: 69.33 CELLS/uL
- ABSOLUTE LYMPHOCYTE [2]: 8987.33 CELLS/uL
- ABSOLUTE MONOCYTE [2]: 88.33 CELLS/uL
- ABSOLUTE SEGMENTED NEUTROPHIL [2]: 388.33 CELLS/uL
- BASOPHIL [2]: 0%
- EOSINOPHIL [2]: 0.67%
- ERYTHROCYTE COUNT [2]: 6.17 x10E6/uL
- HEMATOCRIT [2]: 39.07%
- HEMOGLOBIN [2]: 15.3 G/DL
- LEUKOCYTE COUNT [2]: 9.53 x10E3/uL
- LYMPHOCYTE [2]: 94.33%
- MEAN CORPUSCULAR HEMOGLOBIN [2]: 24.8 pg
- MEAN CORPUSCULAR HEMOGLOBIN CONCENTRATION [2]: 39.17 G/DL
- MEAN CORPUSCULAR VOLUME [2]: 63.33 fL
- MONOCYTE [2]: 1%
- NEUTROPHIL [2]: 4%
- NUCLEATED RED BLOOD CELLS [2]: 0 /100WBC
- PLATELET COUNT [2]: 1357.33 x10E3/uL
- ALANINE AMINOTRANSFERASE [2]: 18.67 u/L
- ALBUMIN [2]: 4.37 G/DL
- ALKALINE PHOSPHATASE [2]: 271 u/L
- ASPARTATE AMINOTRANSFERASE [2]: 103.33 u/L
- BLOOD UREA NITROGEN [2]: 26 mg/dL
- CARBON DIOXIDE [2]: 23 mmol/L
- CHLORIDE [2]: 110 MEQ/L
- CHOLESTEROL [2]: 68.33 mg/dL
- CREATINE PHOSPHOKINASE [2]: 320.33 u/L
- CREATININE [2]: 0.2 mg/dL
- GLUCOSE [2]: 155 mg/dL
- LACTATE DEHYDROGENASE [2]: 594.67 u/L
- LIPASE [2]: 10 u/L
- PHOSPHORUS [2]: 11.2 mg/dL
- POTASSIUM [2]: 5.16 MEQ/L
- SODIUM [2]: 150.7 MEQ/L
- TOTAL BILIRUBIN [2]: 0.17 mg/dL
- TOTAL PROTEIN [2]: 6 G/DL
- URIC ACID [2]: 1.43 mg/dL
- ABSOLUTE BASOPHIL [3]: 0 CELLS/uL
- ABSOLUTE EOSINOPHIL [3]: 60.67 CELLS/uL
- ABSOLUTE LYMPHOCYTE [3]: 9104.67 CELLS/uL
- ABSOLUTE MONOCYTE [3]: 151.67 CELLS/uL
- ABSOLUTE SEGMENTED NEUTROPHIL [3]: 949.67 CELLS/uL
- BASOPHIL [3]: 0%
- EOSINOPHIL [3]: 0.67%
- ERYTHROCYTE COUNT [3]: 5.11 x10E6/uL
- HEMATOCRIT [3]: 32.4%
- HEMOGLOBIN [3]: 12.97 G/DL
- LEUKOCYTE COUNT [3]: 10.27 x10E3/uL
- LYMPHOCYTE [3]: 88%
- MEAN CORPUSCULAR HEMOGLOBIN [3]: 25.37 pg
- MEAN CORPUSCULAR HEMOGLOBIN CONCENTRATION [3]: 40.03 G/DL
- MEAN CORPUSCULAR VOLUME [3]: 63.37 fL
- MONOCYTE [3]: 1.67%
- NEUTROPHIL [3]: 9.67%
- NUCLEATED RED BLOOD CELLS [3]: 0 /100WBC
- PLATELET COUNT [3]: 935.33 x10E3/uL
- ALANINE AMINOTRANSFERASE [3]: 55.33 u/L
- ALBUMIN [3]: 4.33 G/DL
- ALKALINE PHOSPHATASE [3]: 325.33 u/L
- ASPARTATE AMINOTRANSFERASE [3]: 98 u/L
- BLOOD UREA NITROGEN [3]: 15.33 mg/dL
- CARBON DIOXIDE [3]: 33 mmol/L
- CHLORIDE [3]: 101.67 MEQ/L
- CHOLESTEROL [3]: 78.33 mg/dL
- CREATINE PHOSPHOKINASE [3]: 665.67 u/L
- CREATININE [3]: 0.17 mg/dL
- GLUCOSE [3]: 155 mg/dL
- LACTATE DEHYDROGENASE [3]: 181.67 u/L
- LIPASE [3]: 9 u/L
- PHOSPHORUS [3]: 12.03 mg/dL
- POTASSIUM [3]: 6.23 MEQ/L
- SODIUM [3]: 144.83 MEQ/L
- TOTAL BILIRUBIN [3]: 0.17 mg/dL
- TOTAL PROTEIN [3]: 5.93 G/DL
- URIC ACID [3]: 1.23 mg/dL
- ABSOLUTE BASOPHIL [4]: 0 CELLS/uL
- ABSOLUTE EOSINOPHIL [4]: 42 CELLS/uL
- ABSOLUTE LYMPHOCYTE [4]: 10324 CELLS/uL
- ABSOLUTE MONOCYTE [4]: 37 CELLS/uL
- ABSOLUTE SEGMENTED NEUTROPHIL [4]: 997 CELLS/uL
- BASOPHIL [4]: 0%
- EOSINOPHIL [4]: 0.33%
- ERYTHROCYTE COUNT [4]: 5.61 x10E6/uL
- HEMATOCRIT [4]: 36.03%
- HEMOGLOBIN [4]: 14.1 G/DL
- LEUKOCYTE COUNT [4]: 11.4 x10E3/uL
- LYMPHOCYTE [4]: 90.67%
- MEAN CORPUSCULAR HEMOGLOBIN [4]: 25.13 pg
- MEAN CORPUSCULAR HEMOGLOBIN CONCENTRATION [4]: 39.2 G/DL
- MEAN CORPUSCULAR VOLUME [4]: 64.23 fL
- MONOCYTE [4]: 0.33%
- NEUTROPHIL [4]: 8.67%
- NUCLEATED RED BLOOD CELLS [4]: 0 /100WBC
- PLATELET COUNT [4]: 1075 x10E3/uL
- ALANINE AMINOTRANSFERASE [4]: 41.33 u/L
- ALBUMIN [4]: 4.57 G/DL
- ALKALINE PHOSPHATASE [4]: 403 u/L
- ASPARTATE AMINOTRANSFERASE [4]: 105.67 u/L
- BLOOD UREA NITROGEN [4]: 21.67 mg/dL
- CARBON DIOXIDE [4]: 25.67 mmol/L
- CHLORIDE [4]: 101.67 MEQ/L
- CHOLESTEROL [4]: 67 mg/dL
- CREATINE PHOSPHOKINASE [4]: 480.33 u/L
- CREATININE [4]: 0.33 mg/dL
- GLUCOSE [4]: 130.33 mg/dL
- LACTATE DEHYDROGENASE [4]: 623.33 u/L
- LIPASE [4]: 11.33 u/L
- PHOSPHORUS [4]: 12.7 mg/dL
- POTASSIUM [4]: 6.78 MEQ/L
- SODIUM [4]: 142.87 MEQ/L
- TOTAL BILIRUBIN [4]: 0.27 mg/dL
- TOTAL PROTEIN [4]: 6.3 G/DL
- URIC ACID [4]: 1.63 mg/dL
